Legend:
Type in all cases: cell-based
TRPM8 = TRPM8 (Homo sapiens, UniProt Q7Z2W7)
TRPV4 = TRPV4 (Homo sapiens, UniProt Q9HBA0)
TRPV1 = TRPV1 (Homo sapiens, UniProt Q8NER1)
Chain of TRPV1 (Q8NER1 whole entry): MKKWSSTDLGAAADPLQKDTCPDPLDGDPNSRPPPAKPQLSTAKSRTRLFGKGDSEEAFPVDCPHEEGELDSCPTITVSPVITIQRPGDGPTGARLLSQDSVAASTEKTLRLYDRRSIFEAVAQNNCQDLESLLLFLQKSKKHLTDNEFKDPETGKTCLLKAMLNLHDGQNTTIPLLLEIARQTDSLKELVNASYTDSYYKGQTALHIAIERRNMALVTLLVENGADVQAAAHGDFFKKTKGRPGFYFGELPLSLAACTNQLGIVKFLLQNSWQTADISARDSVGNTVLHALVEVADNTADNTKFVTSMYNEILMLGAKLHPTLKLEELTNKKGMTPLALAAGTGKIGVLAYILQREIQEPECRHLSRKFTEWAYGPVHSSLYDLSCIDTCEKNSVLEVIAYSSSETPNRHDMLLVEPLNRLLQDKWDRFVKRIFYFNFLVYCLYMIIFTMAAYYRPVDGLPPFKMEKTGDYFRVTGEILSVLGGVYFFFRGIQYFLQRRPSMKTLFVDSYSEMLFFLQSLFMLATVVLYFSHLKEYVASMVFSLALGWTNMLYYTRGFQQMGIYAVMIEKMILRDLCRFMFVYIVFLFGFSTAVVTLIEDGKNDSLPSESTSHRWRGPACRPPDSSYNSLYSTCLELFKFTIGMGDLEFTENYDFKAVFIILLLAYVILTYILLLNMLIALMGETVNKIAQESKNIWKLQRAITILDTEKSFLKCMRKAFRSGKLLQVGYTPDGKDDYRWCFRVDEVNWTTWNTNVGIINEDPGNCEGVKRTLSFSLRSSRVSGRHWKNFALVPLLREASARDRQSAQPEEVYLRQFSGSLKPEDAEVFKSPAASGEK

Chain of TRPM8 (Q7Z2W7 whole entry): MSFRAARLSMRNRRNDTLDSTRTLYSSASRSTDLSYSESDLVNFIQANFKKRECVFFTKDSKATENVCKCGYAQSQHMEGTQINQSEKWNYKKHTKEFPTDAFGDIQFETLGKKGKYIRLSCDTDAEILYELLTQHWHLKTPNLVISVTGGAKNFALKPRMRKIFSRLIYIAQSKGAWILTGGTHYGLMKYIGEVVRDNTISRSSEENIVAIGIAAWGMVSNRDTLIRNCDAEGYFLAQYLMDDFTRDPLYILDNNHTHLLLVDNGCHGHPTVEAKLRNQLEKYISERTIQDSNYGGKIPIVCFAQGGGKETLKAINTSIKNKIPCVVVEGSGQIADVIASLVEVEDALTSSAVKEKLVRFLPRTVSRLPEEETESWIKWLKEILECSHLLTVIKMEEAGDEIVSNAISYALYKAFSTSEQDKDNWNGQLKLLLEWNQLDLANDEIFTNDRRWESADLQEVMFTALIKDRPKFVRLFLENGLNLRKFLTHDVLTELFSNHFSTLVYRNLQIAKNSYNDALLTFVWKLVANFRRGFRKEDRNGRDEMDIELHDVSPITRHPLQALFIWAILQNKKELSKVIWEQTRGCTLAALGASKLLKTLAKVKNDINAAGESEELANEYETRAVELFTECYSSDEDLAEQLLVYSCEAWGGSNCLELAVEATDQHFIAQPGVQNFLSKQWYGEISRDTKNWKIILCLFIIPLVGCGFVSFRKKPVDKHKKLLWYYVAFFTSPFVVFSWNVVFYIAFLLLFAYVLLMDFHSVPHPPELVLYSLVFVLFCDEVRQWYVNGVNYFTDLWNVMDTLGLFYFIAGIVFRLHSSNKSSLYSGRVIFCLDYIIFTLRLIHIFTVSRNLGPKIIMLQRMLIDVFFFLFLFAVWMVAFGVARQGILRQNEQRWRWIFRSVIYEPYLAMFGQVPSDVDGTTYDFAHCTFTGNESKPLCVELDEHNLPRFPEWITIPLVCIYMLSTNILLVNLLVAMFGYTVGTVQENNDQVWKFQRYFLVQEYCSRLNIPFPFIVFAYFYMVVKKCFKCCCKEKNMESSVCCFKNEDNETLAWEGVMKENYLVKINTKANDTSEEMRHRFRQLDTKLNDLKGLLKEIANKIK
Chain of TRPV4 (Q9HBA0 whole entry): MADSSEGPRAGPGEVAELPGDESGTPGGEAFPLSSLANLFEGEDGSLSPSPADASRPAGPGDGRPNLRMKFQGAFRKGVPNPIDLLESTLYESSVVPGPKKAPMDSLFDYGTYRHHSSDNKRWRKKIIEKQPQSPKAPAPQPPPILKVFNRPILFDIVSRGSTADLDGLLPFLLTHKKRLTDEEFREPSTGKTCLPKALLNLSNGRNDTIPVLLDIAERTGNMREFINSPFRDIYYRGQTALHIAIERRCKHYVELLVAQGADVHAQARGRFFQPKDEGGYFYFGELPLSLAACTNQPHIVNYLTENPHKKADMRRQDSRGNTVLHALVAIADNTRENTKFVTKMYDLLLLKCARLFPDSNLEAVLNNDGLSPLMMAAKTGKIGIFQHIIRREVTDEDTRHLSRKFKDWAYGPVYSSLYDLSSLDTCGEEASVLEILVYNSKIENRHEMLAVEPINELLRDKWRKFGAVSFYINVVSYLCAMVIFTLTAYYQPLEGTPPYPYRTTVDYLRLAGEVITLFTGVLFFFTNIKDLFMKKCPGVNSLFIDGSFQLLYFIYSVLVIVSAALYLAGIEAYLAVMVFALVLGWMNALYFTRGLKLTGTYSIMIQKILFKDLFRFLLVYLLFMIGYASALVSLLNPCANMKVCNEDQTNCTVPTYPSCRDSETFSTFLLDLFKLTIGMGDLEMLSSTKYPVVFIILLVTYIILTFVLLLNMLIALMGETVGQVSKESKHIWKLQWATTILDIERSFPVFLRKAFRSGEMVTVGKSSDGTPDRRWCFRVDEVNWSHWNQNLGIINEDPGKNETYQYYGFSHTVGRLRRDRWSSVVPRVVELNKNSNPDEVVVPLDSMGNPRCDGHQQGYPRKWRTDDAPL

Onydecalin B [compound 2]
IC50 (TRPM8): 18.5 µM

Onydecalin D [compound 4]
IC50 (TRPM8): 61.6 µM

onydecalin A [compound 1]
IC50 (TRPV4): ~45.9 µM | IC50 (TRPV1): ~81.6 µM

Source: PMC6474802 (Journal of natural products, 2018)
